Laboratory results published in US8574563B2 (Bristol-Myers Squibb Company, priority 2006, dated 2013).

test system: HCV 1b-377-neo replicon cells; assay: HCV replicon assay, HCV 1b-377-neo replicon cells (1b FRET); type: cell-based, Hepatitis C virus genotype 1b; settings: HCV 1b-377-neo replicon cells; HCV 1b genotype; read-out: EC50 range against HCV 1b (Table 2, Range)
Outline: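 Compounds tested in HCV genotype 1b-377-neo replicon cells with a FRET read-out. Cells resistant to a reference NS5A inhibitor through a Y2065H NS5A mutation were run alongside wild-type cells.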

Compound | EC50 [nM]
CCC[C@H](NC(=O)OC)C(=O)N1CCC[C@H]1c1ncc(-c2ccc(-c3ccc(-c4cnc([C@@H]5CCCN5C(=O)[C@H](CCC)NC(=O)OC)[nH]4)cc3)cc2)[nH]1 [Example M27, methyl ((1S)-1-(((2S)-2-(5-(4′-(2-((2S)-1-((2S)-2-((methoxycarbonyl)amino)pentanoyl)-2-pyrroldinyl)-1H-imidazol-5-yl)-4-biphenylyl)-1H-imidazol-2-yl)-1-pyrrolidinyl)carbonyl)butyl)carbamate] | 1 to 99

same assay, conditions: Hepatitis C virus, HCV 1b-377-neo replicon cells; HCV 1b genotype; read-out: EC50 range against HCV 1b (Table 2, Range)

Compound | EC50 [nM]
CC(C)C[C@H](O)C(=O)N1CCC[C@H]1c1ncc(-c2ccc(-c3ccc(-c4cnc([C@@H]5CCCN5C(=O)[C@@H](O)CC(C)C)[nH]4)cc3)cc2)[nH]1 [LS3, (2S,2′S)-1,1′-(4,4′-biphenyldiylbis(1H-imidazole-5,2-diyl(2S)-2,1-pyrrolidinediyl))bis(4-methyl-1-oxo-2-pentanol)] | 1 to 99
COC(=O)N[C@H](C(=O)N1C[C@@H](F)C[C@H]1c1ncc(-c2ccc(-c3ccc(-c4cnc([C@@H]5C[C@H](F)CN5C(=O)[C@@H](NC(=O)OC)C(C)C)[nH]4)cc3)cc2)[nH]1)C(C)C [JG-10, methyl ((1S)-1-(((2S,4S)-4-fluoro-2-(5-(4′-(2-((2S,4S)-4-fluoro-1-((2S)-2-((methoxycarbonyl)amino)-3-methylbutanoyl)-2-pyrrolidinyl)-1H-imidazol-5-yl)-4-biphenylyl)-1H-imidazol-2-yl)-1-pyrrolidinyl)carbonyl)-2-methylpropyl)carbamate] | 1 to 99
COC(=O)N[C@@H](C(=O)N1C[C@H](O)C[C@H]1c1nc(-c2ccc(-c3ccc(-c4c[nH]c([C@@H]5C[C@@H](O)CN5C(=O)[C@H](NC(=O)OC)c5ccccc5)n4)cc3)cc2)c[nH]1)c1ccccc1 [Example 24-11, dimethyl (4,4′-biphenyldiylbis(1H-imidazole-5,2-diyl((2S,4R)-4-hydroxy-2,1-pyrrolidinediyl)((1R)-2-oxo-1-phenyl-2,1-ethanediyl)))biscarbamate] | 1 to 99
COC(=O)N[C@@H](C(=O)N1CCC[C@H]1c1ncc(-c2ccc(-c3ccc(-c4cnc([C@@H]5CCCN5C(=O)Cc5ccccc5C)[nH]4)cc3)cc2)[nH]1)c1ccccc1 [Example 84-69, methyl ((1R)-2-((2S)-2-(5-(4′-(2-((2S)-1-((2-methylphenyl)acetyl)-2-pyrrolidinyl)-1H-imidazol-5-yl)-4-biphenylyl)-1H-imidazol-2-yl)-1-pyrrolidinyl)-2-oxo-1-phenylethyl)carbamate] | 0.001 to 0.999
CC(=O)OC(C(=O)N1CCC[C@H]1c1ncc(-c2ccc(-c3ccc(-c4cnc([C@@H]5CCCN5C(=O)[C@@H](c5ccccc5F)N(C)C)[nH]4)cc3)cc2)[nH]1)c1ccccc1 (stereo in doubt) [Example 107-33, (1R)-2-((2S)-2-(5-(4′-(2-((2S)-1-((2R)-2-(dimethylamino)-2-(2-fluorophenyl)acetyl)-2-pyrrolidinyl)-1H-imidazol-5-yl)-4-biphenylyl)-1H-imidazol-2-yl)-1-pyrrolidinyl)-2-oxo-1-phenylethyl acetate] | 0.001 to 0.999
COC(=O)N[C@@H](C)C(=O)N1CCC[C@H]1c1ncc(-c2ccc(-c3ccc(-c4cnc([C@@H]5CCCN5C(=O)[C@H](NC(=O)OC)c5ccccc5)[nH]4)cc3)cc2F)[nH]1 [Example D38, methyl ((1R)-2-((2S)-2-(5-(3′-fluoro-4′-(2-((2S)-1-(N-(methoxycarbonyl)-L-alanyl)-2-pyrrolidinyl)-1H-imidazol-5-yl)-4-biphenylyl)-1H-imidazol-2-yl)-1-pyrrolidinyl)-2-oxo-1-phenylethyl)carbamate] | 0.001 to 0.999
CO[C@@H](C(=O)N1CCC[C@H]1c1ncc(-c2ccc(-c3ccc(-c4cnc([C@@H]5CCCN5C(=O)[C@H](OC)c5ccccc5)[nH]4)cn3)cc2)[nH]1)c1ccccc1 [Example 135, 5-(2-((2S)-1-((2R)-2-methoxy-2-phenylacetyl)-2-pyrrolidinyl)-1H-imidazol-5-yl)-2-(4-(2-((2S)-1-((2R)-2-methoxy-2-phenylacetyl)-2-pyrrolidinyl)-1H-imidazol-5-yl)phenyl)pyridine] | 0.001 to 0.999
C[C@H](C(=O)N1CCC[C@H]1c1ncc(-c2ccc(-c3ccc(-c4cnc([C@@H]5CCCN5C(=O)[C@@H](C)N(C)C)[nH]4)cc3)cc2)[nH]1)N(C)C [Example M8, (2R,2′R)-1,1′-(4,4′-biphenyldiylbis(1H-imidazole-5,2-diyl(2S)-2,1-pyrrolidinediyl))bis(N,N-dimethyl-1-oxo-2-propanamine)] | 1000 to 10000
CCN(CC)[C@@H](C(=O)N1CCC[C@H]1c1ncc(-c2ccc(-c3ccc(-c4cnc([C@@H]5CCCN5C(=O)[C@@H](NC(=O)OC)C(C)C)[nH]4)cc3)cc2)[nH]1)C(C)C [Example M79, methyl ((1S)-1-(((2S)-2-(5-(4′-(2-((2S)-1-(N,N-diethyl-D-valyl)-2-pyrrolidinyl)-1H-imidazol-5-yl)-4-biphenylyl)-1H-imidazol-2-yl)-1-pyrrolidinyl)carbonyl)-2-methylpropyl)carbamate] | 1 to 99
O=C(NC1CCCC1)N[C@@H](C(=O)N1CCC[C@H]1c1ncc(-c2ccc(-c3ccc(-c4cnc([C@@H]5CCCN5C(=O)[C@H](NC(=O)NC5CCCC5)c5ccccc5)[nH]4)cc3)cc2)[nH]1)c1ccccc1 [Example 24-4d, N′,N′′′-(4,4′-biphenyldiylbis(1H-imidazole-5,2-diyl(2S)-2,1-pyrrolidinediyl((1R)-2-oxo-1-phenyl-2,1-ethanediyl)))bis(1-cyclopentylurea)] | 0.001 to 0.999
CCN(CC)[C@@H](C(=O)N1CC(F)(F)C[C@H]1c1nc(-c2ccc(-c3ccc(-c4cnc([C@@H]5CCCN5C(=O)[C@@H](c5ccccc5)N(CC)CC)[nH]4)c(F)c3)cc2)c[nH]1)c1ccccc1 [Example J14e.1, (1R)-2-((2S)-2-(4-(4′-(2-((2S)-1-((2R)-2-(diethylamino)-2-phenylacetyl)-4,4-difluoro-2-pyrrolidinyl)-1H-imidazol-4-yl)-3-fluoro-4-biphenylyl)-1H-imidazol-2-yl)-1-pyrrolidinyl)-N,N-diethyl-2-oxo-1-phenylethanamine] | 0.001 to 0.999
COC(=O)N[C@@H](Cc1ccc(OCc2ccccc2)cc1)C(=O)N1CCC[C@H]1c1ncc(-c2ccc(-c3ccc(-c4cnc([C@@H]5CCCN5C(=O)[C@@H](NC(=O)OC)C(C)C)[nH]4)cc3)cc2)[nH]1 [cj-104, methyl ((1S)-1-(((2S)-2-(5-(4′-(2-((2S)-1-(O-benzyl-N-(methoxycarbonyl)-L-tyrosyl)-2-pyrrolidinyl)-1H-imidazol-5-yl)-4-biphenylyl)-1H-imidazol-2-yl)-1-pyrrolidinyl)carbonyl)-2-methylpropyl)carbamate] | 0.001 to 0.999
O=C([C@@H]1CCCO1)N1CCC[C@H]1c1ncc(-c2ccc(-c3ccc(-c4cnc([C@@H]5CCCN5C(=O)[C@@H](c5ccccc5)N5CCOCC5)[nH]4)cc3)cc2)[nH]1 [Example 105, 4-((1R)-2-oxo-1-phenyl-2-((2S)-2-(5-(4′-(2-((2S)-1-((2S)-tetrahydro-2-furanylcarbonyl)-2-pyrrolidinyl)-1H-imidazol-5-yl)-4-biphenylyl)-1H-imidazol-2-yl)-1-pyrrolidinyl)ethyl)morpholine] | 0.001 to 0.999
COC(=O)N[C@@H](Cc1cn(Cc2ccccc2)cn1)C(=O)N1CCC[C@H]1c1ncc(-c2ccc(-c3ccc(-c4cnc([C@@H]5CCCN5C(=O)[C@H](Cc5cn(Cc6ccccc6)cn5)NC(=O)OC)[nH]4)cc3)cc2)[nH]1 [cj-154, methyl ((1S)-2-((2S)-2-(5-(4′-(2-((2S)-1-((2S)-3-(1-benzyl-1H-imidazol-4-yl)-2-((methoxycarbonyl)amino)propanoyl)-2-pyrrolidinyl)-1H-imidazol-5-yl)-4-biphenylyl)-1H-imidazol-2-yl)-1-pyrrolidinyl)-1-((1-benzyl-1H-imidazol-4-yl)methyl)-2-oxoethyl)carbamate] | 0.001 to 0.999
COC(=O)N[C@H](C(=O)N1CCC[C@H]1c1ncc(-c2ccc(-c3ccc(-c4[nH]c([C@@H]5CCCN5C(=O)[C@@H](NC(=O)OC)C5CC5)nc4C(F)(F)F)cc3)cc2)[nH]1)C1CC1 [Example J41, methyl ((1S)-1-cyclopropyl-2-((2S)-2-(5-(4′-(2-((2S)-1-((2S)-2-cyclopropyl-2-((methoxycarbonyl)amino)acetyl)-2-pyrrolidinyl)-1H-imidazol-5-yl)-4-biphenylyl)-4-(trifluoromethyl)-1H-imidazol-2-yl)-1-pyrrolidinyl)-2-oxoethyl)carbamate] | 0.001 to 0.999
COC(=O)N[C@@H](C(=O)N1CC(F)(F)C[C@H]1c1nc(-c2ccc(-c3ccc(-c4cnc([C@@H]5CC(F)(F)CN5C(=O)[C@H](NC(=O)OC)c5ccccc5)[nH]4)cc3)cc2)c[nH]1)c1ccccc1 [Example 24-9, dimethyl (4,4′-biphenyldiylbis(1H-imidazole-4,2-diyl((2S)-4,4-difluoro-2,1-pyrrolidinediyl)((1R)-2-oxo-1-phenyl-2,1-ethanediyl)))biscarbamate] | 0.001 to 0.999
COC(=O)N[C@H](C(=O)N1CCC[C@H]1c1nc(-c2ccc(-c3ccc(-c4c[nH]c([C@@H]5CCCN5C(=O)[C@@H](NC(=O)OC5CCOCC5)C(C)C)n4)cc3)cc2)c[nH]1)C(C)C [Example F55, tetrahydro-2H-pyran-4-yl ((1S)-1-(((2S)-2-(4-(4′-(2-((2S)-1-(N-(methoxycarbonyl)-L-valyl)-2-pyrrolidinyl)-1H-imidazol-4-yl)-4-biphenylyl)-1H-imidazol-2-yl)-1-pyrrolidinyl)carbonyl)-2-methylpropyl)carbamate] | 0.001 to 0.999
COC(=O)N[C@@H](Cn1cccn1)C(=O)N1CCC[C@H]1c1ncc(-c2ccc(-c3ccc(-c4cnc([C@@H]5CCCN5C(=O)[C@@H](NC(=O)OC)[C@@H](C)OC)[nH]4)cc3)cc2)[nH]1 [cj-39, methyl ((1S)-2-((2S)-2-(5-(4′-(2-((2S)-1-(N-(methoxycarbonyl)-O-methyl-L-threonyl)-2-pyrrolidinyl)-1H-imidazol-5-yl)-4-biphenylyl)-1H-imidazol-2-yl)-1-pyrrolidinyl)-2-oxo-1-(1H-pyrazol-1-ylmethyl)ethyl)carbamate] | 0.001 to 0.999
